Laboratory results taken from publication PMC11110133, “Thiophene-fused γ-lactams inhibit the SARS-CoV-2 main protease via reversible covalent acylation” (Chemical Science, 2024).
Like-named read-outs stand apart in the source and are kept apart here.

Legend:
[1] = target: T1, isolated recombinant SARS-CoV-2 M^pro (Severe acute respiratory syndrome coronavirus 2, UniProt P0DTD1); assay: SPE-MS SARS-CoV-2 Mpro inhibition assay; assay type: biochemical; settings: for IC50: SPE-MS, SARS-CoV-2 M^pro 0.05 μM, substrate peptide 2.0 μM, mean ± SD of two independent runs (n = 2); for fold increase in M^pro inhibition potency relative to γ-lactam 7: relative to 7; for fold more efficient M^pro inhibition than pyrazolidinone 6: relative to reported pyrazolidinone 6; for fold more efficient M^pro inhibition than γ-lactam 5: relative to reported γ-lactam 5
[2] = target: T1, isolated recombinant SARS-CoV-2 M^pro; assay type: binding; settings: for covalent reaction with M^pro (protein-observed MS): M^pro 3.0 μM, γ-lactam 15 μM, 20 mM HEPES pH 7.5, 4 h incubation
[3] = target: T1, isolated recombinant SARS-CoV-2 M^pro; set-up: method as in PMID 35549342; settings: cited from earlier work; for IC50: reported M^pro inhibition
M^pro [4] = settings: mass spectrometric analyses; cited from earlier work
M^pro [5] = tested on: M^pro; set-up: method as in PMID 37866713; settings: reported M^pro inhibition; cited from earlier work

Molecule `CS(=O)(=O)N1C(=O)Cc2sccc21` [C00002] has an IC50 ([1]; read-out: IC50) of 8.4 ± 0.5 µM.

For `CS(=O)(=O)N1C(=O)Cc2cscc21` [compound 9], the IC50 [1] was “did not inhibit”.

Molecule `CS(=O)(=O)N1C(=O)Cc2ccsc21` [C00017] has an IC50 ([1]; read-out: IC50) of 8.5 ± 1.4 µM.

Molecule `O=C1Cc2ccsc2N1S(=O)(=O)Cc1ccccc1` [C00019] has an IC50 ([1]; read-out: IC50) of 4.3 ± 0.1 µM.

With `CC1C(=O)N(S(C)(=O)=O)c2sccc21` (stereo not drawn) [16a] the “complex observed after adding excess 24 to the M^pro:16a mixture (reversibility)” value ([2]; 16a with M^pro 2 h at 0 °C (1 : 5), then 24 for 3 h at 0 °C, SPE-MS) was “not detected”, the “covalent reaction with the covalent M^pro:nirmatrelvir alkyne (24) complex (Cys145 blocked)” value ([2]; M^pro 3.0 μM pre-reacted with 24, then 16a 15 μM, 2 h) was “does not covalently react” and the “covalent reaction with M^pro (protein-observed MS)” value [2] was “react covalently”. The “fold increase in M^pro inhibition potency relative to γ-lactam 7” value [1] was about 2 fold.

In the case of `CC1(C)C(C(=O)OCc2ccccc2)N2C(=O)C(NC(=O)COc3ccccc3)CC2S1(=O)=O` (stereo not drawn) [compound 5], the “fold less efficient M^pro inhibition than β-lactam 3” value ([3]; relative to β-lactam 3) is given as about 4 fold, the IC50 [3] is given as about 26.1 µM and the “covalent reaction with M^pro (reported)” value (M^pro [4]) is given as “did not react to form a stable acyl–enzyme complex”.

For `O=C(O)C1=C(C(=O)N(Cc2ccccc2)Cc2ccccc2)CN2C[C@H](NC(=O)[C@H](Cc3ccccc3)NC(=O)c3cc4ccccc4[nH]3)C(=O)N12` [compound 6], the IC50 (M^pro [5]) is listed as about 45 µM.

For `COc1ccc(S(=O)(=O)N2C(=O)Cc3ccsc32)cc1` [C00021], the IC50 ([1]; read-out: IC50) was 2.7 ± 0.2 µM.

Molecule `CS(=O)(=O)N1C(=O)C2(CC=CC2)c2ccsc21` [C00013] has an IC50 ([1]; read-out: IC50) of 61 ± 4 µM.

In the case of `CCCC1C(=O)N(S(C)(=O)=O)c2sccc21` (stereo not drawn) [C00010], the IC50 ([1]; read-out: IC50) is reported as 3.2 ± 0.8 µM.

`CC1(C)C(=O)N(S(C)(=O)=O)c2sccc21` [C00008] gave an IC50 ([1]; read-out: IC50) of over 100 µM.

For `CS(=O)(=O)N1C(=O)Cc2ccccc21` [compound 11], the IC50 [1] was “did not inhibit”.

`CS(=O)(=O)N1C(=O)C2(CC=CC2)c2sccc21` [C00015] gave an IC50 ([1]; read-out: IC50) of over 100 µM.

For `CS(=O)(=O)N1C(=O)C(Cc2ccccc2)c2ccsc21` (racemic) [C00014], the IC50 ([1]; read-out: IC50) was 4 ± 0.4 µM.

For `CS(=O)(=O)n1c(=O)n(S(C)(=O)=O)c2cscc21` [compound 10], the IC50 [1] was “did not result in inhibition”.

In the case of `CS(=O)(=O)N1C(=O)Cc2sccc21` [compound 8], the “covalent reaction with M^pro (protein-observed MS)” value [2] is reported as “react covalently”, the IC50 ([1]; read-out: IC50) is reported as about 8.4 µM and the “fold more efficient M^pro inhibition than pyrazolidinone 6” value [1] is reported as about 5 fold. For the same molecule, the “fold more efficient M^pro inhibition than γ-lactam 5” value [1] was about 3 fold.

For `CS(=O)(=O)N1C(=O)C2(CC=CC2)c2sccc21` [compound 19], the IC50 [1] was “did not efficiently inhibit”.

For `CS(=O)(=O)N1C(=O)Cc2ccsc21` [compound 7], the “covalent reaction with M^pro (protein-observed MS)” value [2] was “react covalently”, the IC50 ([1]; read-out: IC50) was about 8.5 µM and the “fold more efficient M^pro inhibition than pyrazolidinone 6” value [1] was about 5 fold. The “fold more efficient M^pro inhibition than γ-lactam 5” value [1] was about 3 fold.

Work on `CS(=O)(=O)N1C(=O)Cc2ccccc21` [C00005] yielded an IC50 ([1]; read-out: IC50) of over 100 µM.

`CC1C(=O)N(S(C)(=O)=O)c2sccc21` (stereo not drawn) [C00006] gave an IC50 ([1]; read-out: IC50) of 3.9 ± 0.1 µM.

For `C=CCC1C(=O)N(S(C)(=O)=O)c2sccc21` (racemic) [16f], the IC50 ([1]; read-out: IC50) was about 3.5 µM.

In the case of `CS(=O)(=O)N1C(=O)C2(CC=CC2)c2ccsc21` [compound 18], the IC50 [1] is reported as “did not efficiently inhibit”.

For `CC(=O)N1C(=O)Cc2ccsc21` [23a], the IC50 [1] was “ablated M^pro inhibition”.

With `O=C1Cc2ccsc2N1S(=O)(=O)c1ccc([N+](=O)[O-])cc1` [C00022] the IC50 ([1]; read-out: IC50) was 4.4 ± 0.7 µM.

With `CC1(C)C(=O)N(S(C)(=O)=O)c2sccc21` [17a] the IC50 [1] was “did not inhibit”.

Work on `CS(=O)(=O)N1C(=O)Cc2ccsc21` [C00001] yielded an IC50 ([1]; read-out: IC50) of 8.5 ± 1.4 µM.

For `CCCC1C(=O)N(S(C)(=O)=O)c2sccc21` (stereo not drawn) [16b], the “covalent reaction with M^pro (protein-observed MS)” value [2] was “react covalently”.

In the case of `CC1(C)C(C(=O)OCc2ccccc2)N2C(=O)C(NC(=O)COc3ccccc3)C2S1(=O)=O` (stereo not drawn) [compound 3, penicillin V sulfone benzyl ester], the IC50 [3] is listed as about 6.6 µM and the “covalent reaction with M^pro (reported)” value (M^pro [4]) is listed as “covalent reaction of its β-lactam with the active site Cys145”.

Molecule `CC(=O)N1C(=O)Cc2ccsc21` [C00018] has an IC50 ([1]; read-out: IC50) of over 100 µM.

For `O=C1Cc2ccsc2N1S(=O)(=O)c1ccccc1` [23c], the “fold increase in M^pro inhibition potency relative to γ-lactam 7” value [1] was about 2 fold.

`C=CCC1C(=O)N(S(C)(=O)=O)c2sccc21` (racemic) [C00009] showed an IC50 ([1]; read-out: IC50) of 3.5 ± 0.2 µM.

`CS(=O)(=O)N1C(=O)C(CCC#N)c2ccsc21` (racemic) [16e] showed an IC50 ([1]; read-out: IC50) of about 2.7 µM.

In the case of `C=CCC1(CC=C)C(=O)N(S(C)(=O)=O)c2sccc21` [C00011], the IC50 ([1]; read-out: IC50) is reported as over 100 µM.

For `CS(=O)(=O)N1C(=O)C(Cc2ccccc2)c2ccsc21` (racemic) [16d], the IC50 ([1]; read-out: IC50) was about 4 µM.

For `O=C1Cc2ccsc2N1S(=O)(=O)c1ccc(C(F)(F)F)cc1` [23f], the IC50 ([1]; read-out: IC50) was about 1.3 µM, the “fold increase in M^pro inhibition potency relative to γ-lactam 7” value [1] was about 6 fold and the “fold more potent than γ-lactam 23c” value ([1]; relative to 23c) was about 3 fold. The “fold more efficient M^pro inhibition than β-lactam 3” value ([1]; relative to reported β-lactam 3) was about 6 fold and the “fold more efficient M^pro inhibition than γ-lactam 5” value [1] was about 20 fold.

With `CS(=O)(=O)n1c(=O)n(S(C)(=O)=O)c2cscc21` [C00004] the IC50 ([1]; read-out: IC50) was over 100 µM.

In the case of `COc1ccc(S(=O)(=O)N2C(=O)Cc3ccsc32)cc1` [23d], the “covalent reaction with M^pro (protein-observed MS)” value [2] is reported as “react covalently”.

Molecule `CC(C)C1C(=O)N(S(C)(=O)=O)c2sccc21` (racemic) [C00012] has an IC50 ([1]; read-out: IC50) of 16 ± 2 µM.

`CS(=O)(=O)N1C(=O)C(CCC#N)c2ccsc21` (racemic) [C00007] showed an IC50 ([1]; read-out: IC50) of 2.7 ± 0.1 µM.

In the case of `CS(=O)(=O)N1C(=O)Cc2cscc21` [C00003], the IC50 ([1]; read-out: IC50) is reported as over 100 µM.

In the case of `O=C1Cc2ccsc2N1S(=O)(=O)c1ccccc1` [C00020], the IC50 ([1]; read-out: IC50) is reported as 4.7 ± 1.1 µM.

Molecule `O=C1Cc2ccsc2N1S(=O)(=O)c1ccc(C(F)(F)F)cc1` [C00023] has an IC50 ([1]; read-out: IC50) of 1.3 ± 0.1 µM.

With `C=CCC1(CC=C)C(=O)N(S(C)(=O)=O)c2sccc21` [17b] the IC50 [1] was “did not inhibit”.

For `CC(C)C1C(=O)N(S(C)(=O)=O)c2sccc21` (racemic) [16c], the IC50 ([1]; read-out: IC50) was about 16 µM and the “fold less efficient M^pro inhibition than 16b” value ([1]; relative to propyl-substituted 16b) was about 5 fold.

For `O=C1Cc2ccsc2N1S(=O)(=O)Cc1ccccc1` [23b], the “covalent reaction with M^pro (protein-observed MS)” value [2] was “react covalently” and the “fold increase in M^pro inhibition potency relative to γ-lactam 7” value [1] was about 2 fold.
